Laboratory results as given in publication PMC10033409, “Autoregulation of GPCR signalling through the third intracellular loop” (Nature, 2023).
“And” between values parts separate entries of the source, which are not always exact repeats. Identical values can stand only once.

Molecular target: β2AR (Homo sapiens, UniProt P07550)
Experiment: Radiolabelled antagonist-binding assay (saturation);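 note: membranes expressing β2AR constructs, equilibrated with radioligand on ice, bound ligand retained on GF/C filters, Bmax normalized to membrane protein from a DC assay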
Set-up: HA; expressed in transfected cells; host or cells: crude membrane extracts of transfected cells; Bmax / 125I-Cyanopindolol saturation binding signal: unit not given here
Details: for Bmax / fmol 125I-Cyanopindolol/mg sample: replicates 1-3 and Average; for fmol 125I-Cyanopindolol/mg sample, Fit: fitted curve
[1] = Wild-Type + Gs-peptide, 125I-Cyanopindolol 0.000239059 nM
[2] = Wild-Type + Gs-peptide, 125I-Cyanopindolol 0.0167722 nM
[3] = Wild-Type + Gs-peptide, 125I-Cyanopindolol 0.0344858 nM
[4] = Wild-Type + Gs-peptide, 125I-Cyanopindolol 0.073983 nM
[5] = Wild-Type + Gs-peptide, 125I-Cyanopindolol 0.202201 nM
[6] = Wild-Type + Gs-peptide, 125I-Cyanopindolol 0.415365 nM
[7] = Wild-Type + Gs-peptide, 125I-Cyanopindolol 0.83063 nM
[8] = Wild-Type + Gs-peptide, 125I-Cyanopindolol 1.64238 nM

In the case of [^125I](±)-cyanopindolol, the “125I-Cyanopindolol saturation binding signal” value (Wild-Type + 30 µM Gq-peptide, 0.0283 nM, Average) is reported as 147.58, the “125I-Cyanopindolol saturation binding signal” value (Wild-Type + 30 µM Gq-peptide, 0.0283 nM, Fit) is reported as 291.67 and the “125I-Cyanopindolol saturation binding signal” value (Wild-Type + 30 µM Gq-peptide, 0.0283 nM, experiments 1-3) is reported as 132.79 and 160.83 and 149.12. The “125I-Cyanopindolol saturation binding signal” value (Wild-Type + 30 µM Gq-peptide, 0.0474 nM, Average) was 534.47, the “125I-Cyanopindolol saturation binding signal” value (Wild-Type + 30 µM Gq-peptide, 0.0474 nM, Fit) was 446.28 and the “125I-Cyanopindolol saturation binding signal” value (Wild-Type + 30 µM Gq-peptide, 0.0474 nM, experiments 1-3) was 334.07 and 648.49 and 620.85. The “125I-Cyanopindolol saturation binding signal” value (Wild-Type + 30 µM Gq-peptide, 0.10 nM, Average) was 767.43, the “125I-Cyanopindolol saturation binding signal” value (Wild-Type + 30 µM Gq-peptide, 0.10 nM, Fit) was 753.07 and the “125I-Cyanopindolol saturation binding signal” value (Wild-Type + 30 µM Gq-peptide, 1.85 nM, Average) was 1934.67. The “125I-Cyanopindolol saturation binding signal” value (Wild-Type + 30 µM Gq-peptide, 1.85 nM, Fit) was 1934.64, the Bmax (Wild-Type + Gs-pep) was 2030.45 and 2045.98 and 1796.67 and the Bmax (Wild-Type + Gs-pep, mean) was 1957.70. For the same substance, the “fmol 125I-Cyanopindolol/mg sample, Fit” value [1] was 0.00E+00 fmol/mg sample, the “fmol 125I-Cyanopindolol/mg sample” value [1] was -0.7197 fmol/mg sample and 0.9706 fmol/mg sample and -1.162 fmol/mg sample and the “fmol 125I-Cyanopindolol/mg sample” value (Wild-Type + Gs-peptide, 125I-Cyanopindolol 0.000239059 nM, mean) was -0.3038 fmol/mg sample. For the same substance, the “fmol 125I-Cyanopindolol/mg sample, Fit” value [2] was 4.58E+02 fmol/mg sample, the “fmol 125I-Cyanopindolol/mg sample” value [2] was 412.161 fmol/mg sample and 473.943 fmol/mg sample and 418.268 fmol/mg sample and the “fmol 125I-Cyanopindolol/mg sample” value (Wild-Type + Gs-peptide, 125I-Cyanopindolol 0.0167722 nM, mean) was 434.79 fmol/mg sample. For the same substance, the “fmol 125I-Cyanopindolol/mg sample, Fit” value [3] was 7.83E+02 fmol/mg sample, the “fmol 125I-Cyanopindolol/mg sample” value [3] was 735.259 fmol/mg sample and 854.634 fmol/mg sample and 743.19 fmol/mg sample and the “fmol 125I-Cyanopindolol/mg sample” value (Wild-Type + Gs-peptide, 125I-Cyanopindolol 0.0344858 nM, mean) was 777.694 fmol/mg sample. The “fmol 125I-Cyanopindolol/mg sample, Fit” value [4] was 1.18E+03 fmol/mg sample, the “fmol 125I-Cyanopindolol/mg sample” value [4] was 1168.59 fmol/mg sample and 1355.16 fmol/mg sample and 1153.34 fmol/mg sample and the “fmol 125I-Cyanopindolol/mg sample” value (Wild-Type + Gs-peptide, 125I-Cyanopindolol 0.073983 nM, mean) was 1225.7 fmol/mg sample. The “fmol 125I-Cyanopindolol/mg sample, Fit” value [5] was 1.61E+03 fmol/mg sample, the “fmol 125I-Cyanopindolol/mg sample” value [5] was 1680.99 fmol/mg sample and 1767.57 fmol/mg sample and 1409.36 fmol/mg sample and the “fmol 125I-Cyanopindolol/mg sample” value (Wild-Type + Gs-peptide, 125I-Cyanopindolol 0.202201 nM, mean) was 1619.31 fmol/mg sample. For the same substance, the “fmol 125I-Cyanopindolol/mg sample, Fit” value [6] was 1.79E+03 fmol/mg sample, the “fmol 125I-Cyanopindolol/mg sample” value [6] was 1709.61 fmol/mg sample and 1882.35 fmol/mg sample and 1548.71 fmol/mg sample and the “fmol 125I-Cyanopindolol/mg sample” value (Wild-Type + Gs-peptide, 125I-Cyanopindolol 0.415365 nM, mean) was 1713.56 fmol/mg sample. The “fmol 125I-Cyanopindolol/mg sample, Fit” value [7] was 1.88E+03 fmol/mg sample, the “fmol 125I-Cyanopindolol/mg sample” value [7] was 1837.2 fmol/mg sample and 2069.95 fmol/mg sample and 1681.21 fmol/mg sample and the “fmol 125I-Cyanopindolol/mg sample” value (Wild-Type + Gs-peptide, 125I-Cyanopindolol 0.83063 nM, mean) was 1862.79 fmol/mg sample. For the same substance, the “fmol 125I-Cyanopindolol/mg sample, Fit” value [8] was 1.93E+03 fmol/mg sample, the “fmol 125I-Cyanopindolol/mg sample” value [8] was 2102.36 fmol/mg sample and 2003.58 fmol/mg sample and 1852.88 fmol/mg sample and the “fmol 125I-Cyanopindolol/mg sample” value (Wild-Type + Gs-peptide, 125I-Cyanopindolol 1.64238 nM, mean) was 1986.27 fmol/mg sample. The “125I-Cyanopindolol saturation binding signal” value (Wild-Type, 0.0283 nM, Average) was 144.50, the “125I-Cyanopindolol saturation binding signal” value (Wild-Type, 0.0283 nM, Fit) was 400.71 and the “125I-Cyanopindolol saturation binding signal” value (Wild-Type, 0.0474 nM, Average) was 627.51. The “125I-Cyanopindolol saturation binding signal” value (Wild-Type, 0.0474 nM, Fit) was 590.99, the “125I-Cyanopindolol saturation binding signal” value (Wild-Type, 0.10 nM, Average) was 1200.07 and the “125I-Cyanopindolol saturation binding signal” value (Wild-Type, 0.10 nM, Fit) was 964.14. For the same substance, the “125I-Cyanopindolol saturation binding signal” value (Wild-Type, 1.85 nM, Average) was 2740.91, the “125I-Cyanopindolol saturation binding signal” value (Wild-Type, 1.85 nM, Fit) was 2640.83 and the “125I-Cyanopindolol saturation binding signal” value (Wild-Type, 1.85 nM, experiments 1-3) was 2770.91 and 2891.39 and 2560.43. For the same substance, the “fmol 125I-Cyanopindolol/mg sample, Fit” value (Wild-Type, 125I-Cyanopindolol 0.0198458 nM (Average)) was 3.84E+02 fmol/mg sample, the “fmol 125I-Cyanopindolol/mg sample, Fit” value (Wild-Type, 125I-Cyanopindolol 0.0420593 nM (Average)) was 7.28E+02 fmol/mg sample and the “fmol 125I-Cyanopindolol/mg sample, Fit” value (Wild-Type, 125I-Cyanopindolol 0.234223 nM (Average)) was 1.65E+03 fmol/mg sample. The “fmol 125I-Cyanopindolol/mg sample, Fit” value (Wild-Type, 125I-Cyanopindolol 0.468204 nM (Average)) was 1.86E+03 fmol/mg sample, the “fmol 125I-Cyanopindolol/mg sample, Fit” value (Wild-Type, 125I-Cyanopindolol 0.871756 nM (Average)) was 1.97E+03 fmol/mg sample and the “fmol 125I-Cyanopindolol/mg sample, Fit” value (Wild-Type, 125I-Cyanopindolol 1.70257 nM (Average)) was 2.02E+03 fmol/mg sample. For the same substance, the Bmax (Wild-Type) was 2241.12 and 1916.49 and 2106.37 and the Bmax (Wild-Type, mean) was 2087.99.
